# Assay results from article PMC9546217, “Exploring novel nitrofuranyl sulfonohydrazides as anti‐Leishmania and anti‐cancer agents: Synthesis, in vitro efficacy and hit identification” (Chemical Biology & Drug Design, 2022).
# Like-named read-outs stand apart in the source and are kept apart here.
# Assays:
# Vero cells = experiment: Basal cytotoxicity, resazurin assay; details: read-out: Cytotoxicity, IC50 ± SD, Vero; Vero cells
# Protocol: (§1) The assay method is available in the Supinfo S1.
# (§2) African green monkey kidney epithelial (Vero) cells (Cellonex, South Africa) were cultured and the basal cytotoxicity of the synthesized compounds with antileishmanial and/or anticancer activity was evaluated using the resazurin assay, as described in Mangwegape et al. ^4 Emetine served as the standard cytotoxic drug. Further use of reference drugs, controls, data analysis, calculations and IC50 determinations were identical to that of the antileishmanial assay.
# [1] = Basal cytotoxicity, resazurin assay; details: African green monkey
# Protocol: as §1, §2
# [2] = Cytotoxicity on differentiated host THP-1 macrophages, resazurin assay; type: cell-based, human; details: human, PMA-differentiated THP-1 macrophages, read-out: Cytotoxicity, IC50 ± SD, THP‐1
# Protocol: Duplicate 96‐well plates (for respective anti‐amastigote and cytotoxicity assays) were seeded with 200 μl of a 2.5 × 10^5 cells/ml suspension treated with 25 ng/ml phorbol 12‐myristate 13‐acetate (PMA), followed by 48‐h incubation to promote differentiation into adherent macrophages.
# Cytotoxicity of the compounds on the differentiated host THP-1 cells were also evaluated. As mentioned, duplicate plates of differentiated THP-1 cells were prepared during the anti-amastigote assay. These plates were incubated for 72 hours to differentiate, instead of replacing the growth medium with parasite-containing medium after 48 hours. […] Blanks were growth medium without cells. The treated plates were incubated for 72 hours, followed by the addition of 50 μL of resazurin solution (0.01% in PBS) to each well and 24-hour incubation.
# [3] = system: L. major strain IR‐173 amastigotes; experiment: Anti-amastigote assay (intramacrophage, THP-1 host, resazurin); type: cell-based; details: for IC50: read-out: Antileishmanial activity, IC50 ± SD, Amastigote
# Protocol: (§3) The activities of synthesized compounds against the intramacrophage parasites of the three Leishmania strains were evaluated using a modified, resazurin‐based method (Jain et al., [2012]; Njanpa et al., [2021]). Suspension cultures of human acute monocytic leukemia (THP‐1) cells were maintained in RPMI‐1640 medium (Sigma Aldrich) supplemented with 10% FBS and 1% penicillin–streptomycin, at 37°C and 5% CO2 in a humidified atmosphere. Duplicate 96‐well plates (for respective anti‐amastigote and cytotoxicity assays) were seeded with 200 μl of a 2.5 × 10^5 cells/ml suspension treated with 25 ng/ml phorbol 12‐myristate 13‐acetate (PMA), followed by 48‐h incubation to promote differentiation into adherent macrophages.
# (§4) For the anti‐amastigote assay, differentiated plates were carefully washed with PBS, followed by the addition of 200 μl of stationary phase promastigotes in RPMI 1640 medium with 2% FBS. An MOI of 30:1 was used for all three Leishmania strains. The parasite‐treated plates were incubated for 24 h at 32°C (L. major) or 37°C (L. donovani) and 5% CO2 to promote infection of the macrophages. […] Blanks were represented by growth medium without cells, as well as parasite‐free THP‐1 cells. The treated plates were incubated for 72 h.
# (§5) After incubation, the plates were gently washed three times with PBS to remove any remaining extracellular parasites. The wells were then treated with 20 μl of 0.05% sodium dodecyl sulfate in PBS for 30 s to lyse the host macrophages. Lysis was terminated by adding 180 μl promastigote growth medium with 10% FBS. To initiate the resazurin assay, 10 μl of resazurin solution (0.025% in PBS) was added to all wells and the plates were incubated for 24 h at 32°C (L. major) or 37°C (L. donovani) and 5% CO2. Absorbance measurements, calculations, and IC50 determinations were performed as described for the antipromastigote assay (Supinfo S1).
# [4] = system: L. donovani strain 1S amastigotes; experiment: as above; type: cell-based; details: for IC50: L. donovani 1S, read-out: 1S IC50 ± SD, Amastigote
# Protocol: as §3, §4, §5
# [5] = system: L. donovani strain 9515 amastigotes; experiment: as above; type: cell-based; details: for IC50: L. donovani 9515, read-out: 9515 IC50 ± SD, Amastigote
# Protocol: as §3, §4, §5
# [6] = system: L. major strain IR‐173 promastigotes; experiment: Antipromastigote assay (resazurin); type: cell-based; details: L. major IR‐173, read-out: Antileishmanial activity, IC50 ± SD, Promastigote
# Protocol: (§6) The antipromastigote activity of synthesized compounds was evaluated as described previously by Mangwegape et al. ([2021]) using three strains of L. donovani (1S (MHOM/SD/62/1S) and 9515 (MHOM/IN/95/9515)) and L. major (IR‐173 [MHOM/IR/−173]). The assay method is available in the Supinfo S1.
# (§7) The antipromastigote activity of synthesized compounds was evaluated using a modified, resazurin-based method of Kulshrestha et al. ^2 and Siqueira-Neto et al. ^3 and on three Leishmania strains. Leishmania donovani (strains 1S (MHOM/SD/62/1S) and 9515 (MHOM/IN/95/9515)) and L. major (strain IR-173 (MHOM/IR/-173)) promastigotes were cultured in M199 with Hank's salts and 0.68 mM L-glutamine (Sigma Aldrich) supplemented with 50 U/mL Penicillin/Streptomycin solution (Lonza), 4.2 mM sodium bicarbonate, 25 mM Hepes, 10% fetal bovine serum, 0.25% hemin, 0.1% biotin, and 10 mM adenine (Sigma Aldrich) and the pH adjusted to 7.3 – 7.4. The promastigotes were maintained at 25 °C.
# (§8) Amphothericin B (10 μM) served as the standard drug and growth medium without parasites served as the blank. The plates were incubated for 48 hours at 25 °C in humidified atmosphere. After incubation, 50 μL of resazurin solution (0.01% in PBS) was added to each well and the plates were further incubated at 25 °C in the dark for 24 hours. Absorbance was measured at 570 nm and 600 nm using the Thermofisher Scientific GO Multiscan plate reader. Data analysis was performed for each biological replicate using SkanIt 4.0 Research Edition software. Background absorbance of resazurin (600 nm) was subtracted from the absorbance values of resorufin (570 nm). The mean absorbance calculated and the percentage growth inhibition and cell viability were determined by the following equations: […]
# (§9) The IC50 and Z-score were determined for each compound’s three biological replicates using the cell viability % values and GraphPad Prism 5. The mean IC50 of the biological replicates with standard deviation (SD) served as the final IC50 of each compound.
# [7] = system: L. donovani strain 9515 promastigotes; experiment: Antipromastigote assay (resazurin); type: cell-based; details: L. donovani 9515, read-out: 9515 IC50 ± SD, Promastigote
# Protocol: as §6, §7, §8, §9
# [8] = system: L. donovani strain 1S promastigotes; experiment: Antipromastigote assay (resazurin); type: cell-based; details: L. donovani 1S, read-out: 1S IC50 ± SD, Promastigote
# Protocol: as §6, §7, §8, §9
# [9] = system: Clone 15 HL‐60 promyelocytic leukemia cells; experiment: Anticancer assay (resazurin); type: cell-based, human; details: n = 3; read-out: Anticancer activity, IC50 ± SD, Clone 15 HL‐60
# Protocol: (§10) The anticancer activities of synthesized compounds were evaluated using a resazurin‐based assay (Czekanska, [2011]). Accordingly, a screening method similar to that of the cytotoxicity assay was used to screen for anticancer activity, using human melanoma (A375), promyelocytic leukemia (Clone 15 HL‐60), lung cancer (A549), and breast cancer (MCF7) cells. The culture and assay methods are provided in the Supinfo S1.
# (§11) The potential anticancer activities of synthesized compounds were screened using the resazurin assay. ^5 Breast adenocarcinoma (MCF7, ATCC® HTB-22™) and human melanoma (A375, ATCC® CRL-1619™) cells were cultured in Hyclone Dulbecco's modified Eagle’s medium with high glucose (Separations) supplemented with 10 % fetal bovine serum (FBS) (Thermofisher Scientific) and 1 % L-glutamine, penicillin-streptomycin and non-essential amino acids (Lonza). Human lung carcinoma (A549, ATCC®, CCL-185™) cells were cultured in Ham’s F12K medium supplemented with 10% FBS and 1% L-glutamine, penicillin-streptomycin and non-essential amino acids. Human promyelocytic leukemia (Clone 15 HL-60, ATCC® CRL-1946™) cells were cultured in RPMI-1640 medium (Sigma Aldrich) supplemented with 10% FBS and 1% penicillin-streptomycin. The cell lines were maintained in a humidified atmosphere at 37 °C and 5% CO2.
# (§12) For the resazurin assay, 96 well plates were prepared with 100 μL of 100 000 cells/mL MCF7 cell suspension, 100 μL of 50 000 cells/mL A375 cell suspension, 100 μL of 25 000 cells/mL A549 cell suspension, or 50 μL of 50 000 cells/mL HL-60 cell suspension. The MCF7, A375 and A549 cell plates were incubated for 24 hours to allow adherence of the cells to the plate surface, after which the growth medium is replaced with 100 μL medium containing compounds. […] The cell lines were treated with: (i) parthenolide (Sigma Aldrich) (positive control); (ii) growth medium and solvent (negative control to compensate for possible solvent effects); (iii) growth medium and experimental compound solutions. […] Blanks contained growth medium without cells. The treated plates were incubated for 48 hours.
# (§13) To initiate the resazurin assay, 50 μL of sterile-filtered resazurin sodium salt (Sigma Aldrich) solution (0.01 % in PBS) was added and the plates incubated for 2 hours (MCF7, A375 and A549 cells) or 24 hours (HL-60 cells). Absorbance was measured at 570 and 600 nm using the Thermofisher Scientific GO Multiscan plate reader. Data analysis was performed for each biological replicate using SkanIt 4.0 Research Edition software. Further data analysis, calculations and IC50 determinations were identical to that of the antileishmanial and cytotoxicity assays.
# (§14) For the final IC50 of each compound, the mean IC50 of the biological replicates were calculated with standard deviation (SD).
# A375 melanoma cells = experiment: Anticancer assay (resazurin); type: cell-based, human; details: n = 3; read-out: Anticancer activity, IC50 ± SD, A375
# Protocol: as §10, §11, §12, §13, §14
molecule,measurement,setting,value
"CC[C@H]1CN2CCc3cc(OC)c(OC)cc3[C@@H]2C[C@@H]1C[C@H]1NCCc2cc(OC)c(OC)cc21 [EM, emetine, reference compound]",IC50,Vero cells,80 ± 9 nM
"NC(=O)N/N=C/c1ccc([N+](=O)[O-])o1 [NFZ, nitrofurazone, reference compound]",IC50,[1]; Vero cells (kidney epithelial),> 100000 nM
same,IC50 at 72 h,[2],> 100000 nM
same,Specificity index SpI1,[3]; L. major IR‐173: IC50 promastigote/IC50 amastigote,0.32
same,Selectivity index SI4,[4]; L. donovani 1S: IC50 THP‐1/IC50 amastigote,> 40
same,Selectivity index SI3,[4]; L. donovani 1S: IC50 Vero/IC50 amastigote,> 40
same,Specificity index SpI2,[4]; L. donovani 1S: IC50 promastigote/IC50 amastigote,2.62
same,IC50,"[4]; Leishmania donovani, THP-1",2500 ± 400 nM
same,Selectivity index SI6,[5]; L. donovani 9515: IC50 THP‐1/IC50 amastigote,> 20
same,Selectivity index SI5,[5]; L. donovani 9515: IC50 Vero/IC50 amastigote,> 20
same,Specificity index SpI3,[5]; L. donovani 9515: IC50 promastigote/IC50 amastigote,0.37
same,IC50,[6]; Leishmania major,1850 ± 60 nM
same,IC50,[7]; Leishmania donovani,1850 ± 140 nM
same,IC50,[8]; Leishmania donovani,6540 ± 930 nM
"(E)-4-Fluoro-N'-([5-nitrofuran-2-yl]methylene)-(1,1'-biphenyl)-4-sulfonohydrazide [2i]",IC50,Vero cells,29200 ± 5410 nM
same,IC50,[9],> 10000 nM
same,IC50,A375 melanoma cells,> 10000 nM
same,IC50,[3]; L. major IR‐173,> 10000 nM
same,IC50,[4],> 10000 nM
same,IC50,[5],> 10000 nM
same,IC50,[6],> 10000 nM
same,IC50,[7],> 10000 nM
same,IC50,[8],9380 ± 820 nM
"C[C@@H]1[C@H](O)[C@@H](C)/C=C/C=C/C=C/C=C/C=C/C=C/C=C/[C@H](O[C@@H]2O[C@H](C)[C@@H](O)[C@H](N)[C@@H]2O)C[C@@H]2O[C@](O)(C[C@@H](O)C[C@@H](O)[C@H](O)CC[C@@H](O)C[C@@H](O)CC(=O)O[C@H]1C)C[C@H](O)[C@H]2C(=O)O [AMB, Amphotericin B, reference compound]",IC50,[1],57800 ± 3220 nM
same,IC50,"[3]; Leishmania major, THP-1, L. major IR‐173",30 nM
same,IC50,"[4]; Leishmania donovani, THP-1",40 nM
same,IC50,"[5]; Leishmania donovani, THP-1",50 nM
same,IC50,[6]; Leishmania major,30 ± 6 nM
same,IC50,[8]; Leishmania donovani,20 nM
